Assay results reported in the supplement of paper PMC4862054.
Values joined by “and” are separate entries in the source; they are usually repeats but may differ in a detail not shown here. Equal entries are not always repeated.

Columns and labels:
Conditions in all cases: incubation time: 72 h
MDA-MB-231 [1] = experiment: drug sensitivity score (DSS), CellTiter-Blue viability (DSS (AUC-based score)); higher = stronger viability inhibition; extreme values may be limits of the assay
Method: (§1)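 DSRT with the CellTiter-Blue (resazurin reduction) viability readout, fluorescence 560/590 nm, 72 h incubation. Plates were normalised to DMSO and benzethonium chloride controls. DSS is computed from the area under the fitted dose-response curve (5 or 9 concentrations).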

HCC1599 = experiment: as above
Method: as §1

CAL-148 [2] = experiment: as above
Method: as §1

BT-549 [3] = experiment: as above
Method: as §1

HDQ-P1 [4] = experiment: as above
Method: as §1

SK-BR-3 [5] = experiment: as above
Method: as §1

BT-474 [6] = experiment: as above
Method: as §1

DU-4475 [7] = experiment: as above
Method: as §1

Hs578T = experiment: drug sensitivity score (DSS), CellTiter-Glo (DSS (AUC-based score)); higher = stronger drug effect (viability inhibition or cytotoxicity); extreme values may be limits of the assay
Summary of the method: (§2)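 Breast cancer cell lines, seeded as 20 µl suspension, were incubated 72 h with compound in 384-well plates at 5 concentrations in 10-fold steps over a 10,000-fold range set for each compound. Fluorescence from CellTox Green was read at 485/520 nm before CellTiter-Glo luminescence, which was read after 10 min at room temperature. Every plate was normalised to 0.1 % DMSO and a positive kill control, and the drug sensitivity score was taken from the area under the fitted dose-response curve.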

MDA-MB-231 [8] = experiment: as above
Summary of the method: as §2

MCF-10A = experiment: as above
Summary of the method: as §2

CAL-148 [9] = experiment: as above
Summary of the method: as §2

HCC1143 = experiment: as above
Summary of the method: as §2

BT-549 [10] = experiment: as above
Summary of the method: as §2

HDQ-P1 [11] = experiment: as above
Summary of the method: as §2

SK-BR-3 [12] = experiment: as above
Summary of the method: as §2

BT-474 [13] = experiment: as above
Summary of the method: as §2

CAL-120 = experiment: as above
Summary of the method: as §2

HCC1937 = experiment: as above
Summary of the method: as §2

CAL-51 = experiment: as above
Summary of the method: as §2

MDA-MB-468 = experiment: as above
Summary of the method: as §2

MDA-MB-453 = experiment: as above
Summary of the method: as §2

MFM-223 = experiment: as above
Summary of the method: as §2

DU-4475 [14] = experiment: as above
Summary of the method: as §2

MDA-MB-436 = experiment: as above
Summary of the method: as §2

Structure (SMILES) | drug sensitivity score (MDA-MB-231 [1]) | drug sensitivity score (HCC1599) | drug sensitivity score (CAL-148 [2]) | drug sensitivity score (BT-549 [3]) | drug sensitivity score (HDQ-P1 [4]) | drug sensitivity score (SK-BR-3 [5]) | drug sensitivity score (BT-474 [6]) | drug sensitivity score (DU-4475 [7]) | drug sensitivity score (Hs578T) | drug sensitivity score (MDA-MB-231 [8]) | drug sensitivity score (MCF-10A) | drug sensitivity score (CAL-148 [9]) | drug sensitivity score (HCC1143) | drug sensitivity score (BT-549 [10]) | drug sensitivity score (HDQ-P1 [11]) | drug sensitivity score (SK-BR-3 [12]) | drug sensitivity score (BT-474 [13]) | drug sensitivity score (CAL-120) | drug sensitivity score (HCC1937) | drug sensitivity score (CAL-51) | drug sensitivity score (MDA-MB-468) | drug sensitivity score (MDA-MB-453) | drug sensitivity score (MFM-223) | drug sensitivity score (DU-4475 [14]) | drug sensitivity score (MDA-MB-436)
CC(=O)O[C@H]1C(=O)[C@@]2(C)[C@H]([C@H](OC(=O)c3ccccc3)[C@]3(O)C[C@H](OC(=O)[C@H](O)[C@@H](NC(=O)c4ccccc4)c4ccccc4)C(C)=C1C3(C)C)[C@]1(OC(C)=O)CO[C@@H]1C[C@@H]2O [Paclitaxel] | 21.4 | 3.04 | 21.9 | 24.7 | 20.9 | 26.6 | 19 | 18.3 | 23.7 | 17.3 | 19.8 | 18.3 | 20.9 | 24.3 | 11.5 | 33.6 | 17.2 | 13.2 | 10.5 | 18.9 | 23.5 | 9.73 | 16.5 | 10.4 | 21.1
CCOc1cc2ncc(C#N)c(Nc3ccc(OCc4ccccn4)c(Cl)c3)c2cc1NC(=O)/C=C/CN(C)C [Neratinib] | 0 | 0 | 0 | 0 | 0 | 0 | 0 | 0 | 0 | 0 | 11 | 2.61 | 0 | 0 | 6.58 | 24.8 | 0 | 1.19 | 0 | 1.09 | 4.31 | 8.47 | 0.624 | 0 | 0
COc1cc(Nc2ncc(F)c(Nc3ccc4c(n3)NC(=O)C(C)(C)O4)n2)cc(OC)c1OC [Tamatinib] | – | – | – | – | – | – | – | – | 0 | 0 | 0 | 0 | 0 | 4.09 | 0 | 0 | 0 | 0 | 0 | 2.11 | 0 | 0 | 0 | 0 | 0
FC(F)c1nc2ccccc2n1-c1nc(N2CCOCC2)nc(N2CCOCC2)n1 [ZSTK474] | – | – | – | – | – | – | – | – | 11.3 | 7.99 | 10.9 | 6.71 | 6.07 | 13.1 | 10.8 | 15.3 | 6.3 | 7.92 | 6.46 | 11.6 | 8.61 | 12.9 | 9.3 | 1.87 | 9.24
CC(C)(C)c1cc(NC(=O)Nc2ccc(-c3cn4c(n3)sc3cc(OCCN5CCOCC5)ccc34)cc2)no1 [Quizartinib] | 0 | 0.62 | 0 | 3.75 | 0 | 0 | 0 | 0 | 0 | 0 | 0 | 0 | 0 | 0 | 0 | 0 | 0 | 0 | 0 | 0 | 0 | 0 | 0 | 0 | 0
COc1c(C)cnc(Cn2cnc3c(Cl)nc(N)nc32)c1C [BIIB021] | 15.8 | 8.11 | 19.3 | 18.8 | 12.8 | 26.8 | 18.8 | 22 | 8.9 | 13.4 | 15.5 | 15.8 | 11.5 | 15.7 | 15.2 | 21.9 | 12.4 | 10.1 | 16.3 | 17.2 | 12.7 | 16.2 | 13.2 | 17.8 | 13.3
COc1ccc(C2=N[C@@H](c3ccc(Cl)cc3)[C@@H](c3ccc(Cl)cc3)N2C(=O)N2CCNC(=O)C2)c(OC(C)C)c1 [Nutlin-3] | 0 | 0 | 0 | 0 | 0 | 0 | 0 | 3.53 | 0 | 0 | 0 | 0.553 | 0 | 0 | 0 | 0 | 0 | 0 | 0 | 10.8 | 0 | 0.52 | 0 | 0.984 | 0
Cc1cc(C(C)Nc2ccccc2)c2nc(N3CCOCC3)cc(=O)n2c1 (centres undefined) [TGX-221] | – | – | – | – | – | – | – | – | 0 | 0 | 0 | 0 | 0 | 2.27 | 0.256 | 0 | 3.45 | 0.0447 | 0 | 10.7 | 4.69 | 0 | 0 | 0 | 0
Cn1c(=O)c(F)c(Nc2ccc(I)cc2F)c2c(=O)n(C[C@@H](O)CO)cnc21 [TAK-733] | 18.1 | 0 | 0 | 0 | 3.87 | 0 | 0 | 29.3 | 0 | 3.88 | 18.5 | 0 | 0 | 0.999 | 10.1 | 0 | 6.85 | 4.39 | 3 | 8.36 | 3.59 | 0 | 0.644 | 25.4 | 1.27
COC(=O)C[C@](O)(CCCC(C)(C)O)C(=O)O[C@@H]1C(OC)=C[C@]23CCCN2CCc2cc4c(cc2[C@H]13)OCO4 [Omacetaxine] | 27.8 | 24.8 | 31.6 | 28.3 | 30.7 | 28.3 | 20.5 | 38.1 | 26 | 21.2 | 22.1 | 19.9 | 22.4 | 26.7 | 23.1 | 23.4 | 16.7 | 19 | 21.2 | 27.1 | 27.4 | 16.8 | 22.1 | 30.6 | 27
O=P(O)(NCCCl)NCCCl [Ifosfamide mustard] | 0 | 0 | 0 | 0 | 0 | 0 | 0 | 0 | – | – | – | – | – | – | – | – | – | – | – | – | – | – | – | – | –
CS(=O)(=O)CCNCc1ccc(-c2ccc3ncnc(Nc4ccc(OCc5cccc(F)c5)c(Cl)c4)c3c2)o1 [Lapatinib] | – | – | 3.64 and 1.81 | 3.9 and 2.66 | 0 | 25.7 and 24.2 | 17.2 and 17.8 | 0 | 0 | 0 | 4.31 | 0 | 0 | 0 | 2.38 | 10.8 | 0 | 0 | 0 | 0 | 0 | 1.41 | 0 | 0 | 0
COc1cc(Nc2ncc(F)c(Nc3ccc4c(n3)NC(=O)C(C)(C)O4)n2)cc(OC)c1OC [R406] | 5.44 | 0 | 0 | 5.38 | 0 | 0 | 0 | 0 | – | – | – | – | – | – | – | – | – | – | – | – | – | – | – | – | –
Nc1nccc(-c2c(-c3ccc(F)cc3)ncn2C2CCCCC2)n1 | – | – | – | – | – | – | – | – | 0 | 0 | 0.945 | 0 | 0 | 0 | 0 | 0 | 0.373 | 0 | 0 | 0.055 | 5.85 | 0.568 | 0 | 0 | 0
CN(c1ccccc1CNc1nc(Nc2ccc3c(c2)CC(=O)N3)ncc1C(F)(F)F)S(C)(=O)=O | – | – | – | – | – | – | – | – | 4.29 | 7.82 | 9.21 | 1.24 | 4.97 | 5.64 | 7.23 | 5.83 | 7.07 | 4.65 | 2.73 | 10.6 | 8.4 | 0 | 2.28 | 7.61 | 2.86
C[C@@H]1CCN(C(=O)CC#N)C[C@@H]1N(C)c1ncnc2[nH]ccc12 [Tofacitinib] | – | – | – | – | – | – | – | – | 0 | 0 | 0 | 0 | 0 | 0 | 0 | 0 | 0 | 0 | 0 | 5 | 0 | 0 | 0 | 0 | 0
c1ccc(C2CN3CCSC3=N2)cc1 (centres undefined) [Tetramisole] | 0 | 0 | 0 | 0 | 0 | 0 | 0 | 0 | – | – | – | – | – | – | – | – | – | – | – | – | – | – | – | – | –
